Reference: patent publication US20260209214A1, “LSD1 MODULATORS” (RECURSION PHARMACEUTICALS, INC., priority 2022, published 2026)

Molecular target: Recombinant human LSD1 (Homo sapiens, UniProt O60341)
Experiment: LSD1 inhibition assay (HTRF LSD1 Histone H3K4 mono-demethylation assay, me1->me0)
Format: biochemical
Conditions: 20 nM recombinant human LSD1, 95 nM H3K4(me1) biotinylated peptide, 15 min preincubation, 60 min at 25° C., read-out: LSD1 inhibition IC50 (nM range)
Procedure: LSD1 biochemical activity was measured using the HTRF® LSD1 Histone H3K4 mono-demethylation assay (me1->me0). Briefly, the enzymatic buffer was prepared by addition of 50 mM Tris-HCl (Sigma cat #T2663-IL), 50 mM NaCl (ThermoFisher cat #AM9759) and 0.01% Tween 20 (ThermoFisher cat #J20605.AP) in distilled water (final pH 8.5). This buffer was supplemented with 10 μM FAD (Fisher Scientific cat #11411838) and 1 mM DTT (Sigma cat #D0632). For the assay, H3K4(me1) biotinylated peptide substrate (Anaspec, cat #64355) was added to provide a final assay concentration of 95 nM. The streptavidin-XL665 (Cisbio cat #610SAXLA) and H3K4 me0-Eu(K) antibody-cryptate (Cisbio, cat #61 KAOKAD) detection reagents were mixed according to the manufacturer's instructions. Test compounds were diluted in DMSO in a series of 10 semi-log step doses; 10 nL of each compound dose were dispensed in 384 well plates. Recombinant human LSD1 was diluted into enzymatic buffer to provide a final assay concentration of 20 nM and added to the tested compounds for 15 minutes. The reaction was started by addition of the substrate and incubated at 25° C. for 60 minutes. The detection reagents were added, and the plate was incubated in the dark for 90 minutes. Fluorescence was measured on an Envision 2103 plate reader with optical setup for […] in the HTRF mode. The ratio of acceptor and donor emission signals was calculated for each well. Percent inhibition values were calculated from the HTRF ratios at different doses and fitted to a 4-parameter logistic curve to determine IC50 values. […]

Structure (SMILES)	IC50
N#Cc1ccc(-c2cccc(C[C@@H]3CNCCO3)c2-c2ocnc2F)cc1F (single isomer, unassigned) [Example 26]	< 10 nM
N#Cc1ccc(-c2cc(F)cc(CC3CNCCO3)c2-c2cnco2)cc1F (stereo not drawn) [Example 49, 3,5′-difluoro-3′-[(morpholin-2-yl)methyl]-2′-(1,3-oxazol-5-yl)-[1,1′-biphenyl]-4-carbonitrile]	25 to 100 nM
N#Cc1ccc(-c2cccc(CC3CNCCO3)c2-c2cnco2)cc1F (stereo not drawn) [Example 47, 3-fluoro-3′-[(morpholin-2-yl)methyl]-2′-(1,3-oxazol-5-yl)-[1,1′-biphenyl]-4-carbonitrile]	25 to 100 nM
N#Cc1ccc(-c2cc(CC3CNC4(CC4)CO3)ccc2N2CCC2)cc1F (stereo not drawn) [Example 135, 2′-(azetidin-1-yl)-3-fluoro-5′-({7-oxa-4-azaspiro[2.5]octan-6-yl}methyl)-[1,1′-biphenyl]-4-carbonitrile]	> 1000 nM
N#Cc1ccc(-c2cccc(CN3CC4CC(C3)N4)c2C2CC2)cc1F [Example 323, 4-[2-cyclopropyl-3-(3,6-diazabicyclo[3.1.1]heptan-3-ylmethyl)phenyl]-2-fluoro-benzonitrile; (2R,3R)-2,3-dihydroxybutanedioic acid]	10 to 25 nM
C[C@]1(N)C[C@H]2CC[C@@H]1N2Cc1cccc(-c2ccc(C#N)c(F)c2)c1C1CC1 (racemic) [Example 229, 3'-{[(1S,2S,4R)-2-amino-2-methyl-7-azabicyclo[2.2.1]heptan-7-yl]methyl}-2'-cyclopropyl-3-fluoro-[1,1'-biphenyl]-4-carbonitrile]	25 to 100 nM
N#Cc1ccc(-c2cccc(CN3[C@@H]4CC[C@H]3[C@@H](N)C4)c2N2CCCC2)cc1F (racemic) [Example 270, 3'-{[(1S,2S,4R)-2-amino-7-azabicyclo[2.2.1]heptan-7-yl]methyl}-3-fluoro-2'-(pyrrolidin-1-yl)-[1,1'-biphenyl]-4-carbonitrile]	100 to 1000 nM
COCC1CN(c2ccc(CC3CNCCO3)cc2-c2ccc(C#N)c(F)c2)C1 (stereo not drawn) [Example 55, 3-fluoro-2′-[3-(methoxymethyl)azetidin-1-yl]-5′-[(morpholin-2-yl)methyl]-[1,1′-biphenyl]-4-carbonitrile]	100 to 1000 nM
COCc1ccc(-c2ccc(CC3CNCCO3)cc2-c2ccc(C#N)c(F)c2)c(F)c1 (stereo not drawn) [Example 68, 3-fluoro-2′-[2-fluoro-4-(methoxymethyl)phenyl]-5′-[(morpholin-2-yl)methyl]-[1,1′-biphenyl]-4-carbonitrile]	25 to 100 nM
N#Cc1ccc(-c2cc(CC3CNCCCO3)ccc2N2CCC2)cc1F (stereo not drawn) [Example 102, 2′-(azetidin-1-yl)-3-fluoro-5′-[(1,4-oxazepan-2-yl)methyl]-[1,1′-biphenyl]-4-carbonitrile]	25 to 100 nM
CN[C@H]1C[C@H]2CC[C@@H]1N2Cc1cccc(-c2ccc(C#N)c(F)c2)c1C1CC1 (racemic) [Example 175]	10 to 25 nM
N#Cc1ccc(-c2cccc(CC3CNCCO3)c2-c2cncs2)cc1 (stereo not drawn) [Example 34, 3′-[(morpholin-2-yl)methyl]-2′-(1,3-thiazol-5-yl)-[1,1′-biphenyl]-4-carbonitrile]	10 to 25 nM
N#Cc1ccc(-c2cc(CC3CNCCO3)ccc2N2CCCOCC2)cc1F (stereo not drawn) [Example 143, 3-fluoro-5'-[(morpholin-2-yl)methyl]-2'-(1,4-oxazepan-4-yl)-[1,1'-biphenyl]-4-carbonitrile]	100 to 1000 nM
N#Cc1ccc(-c2ccc(F)c(CN3[C@@H]4CC[C@H]3[C@@H](N)C4)c2C2CC2)cc1F (racemic) [Example 181, N[C@@H]1C[C@@H]2CC[C@H]1N2Cc3c(F)ccc(c4ccc(C#N)c(F)c4)c3C5CC5]	10 to 25 nM
N#Cc1ccc(-c2cc(C[C@@H]3CNCCO3)ccc2N2CCC2)cc1F (single isomer, unassigned) [Example 41]	100 to 1000 nM
N#Cc1ccc(-c2cc(Cl)cc(CN3[C@@H]4CC[C@H]3[C@@H](N)C4)c2-c2cncs2)cc1F (racemic) [Example 268, 3'-{[(1S,2S,4R)-2-amino-7-azabicyclo[2.2.1]heptan-7-yl]methyl}-5'-chloro-3-fluoro-2'-(1,3-thiazol-5-yl)-[1,1'-biphenyl]-4-carbonitrile]	10 to 25 nM
CN(CC1CC1)c1c(CN2[C@@H]3CC[C@H]2[C@@H](N)C3)cccc1-c1ccc(C#N)c(F)c1 (racemic) [Example 269, 3'-{[(1S,2S,4R)-2-amino-7-azabicyclo[2.2.1]heptan-7-yl]methyl}-2'-[(cyclopropylmethyl)(methyl)amino]-3-fluoro-[1,1'-biphenyl]-4-carbonitrile]	100 to 1000 nM
N#Cc1ccc(-c2cccc(CC3CCOCC3)c2-c2ccns2)cc1F [Example 111, 3-fluoro-3′-[(oxan-4-yl)methyl]-2′-(1,2-thiazol-5-yl)-[1,1′-biphenyl]-4-carbonitrile]	25 to 100 nM
CN(C[C@H]1CCCOC1)c1ccc(CC2CNCCO2)cc1-c1ccc(C#N)c(F)c1 (stereo partly drawn) [Example 120, 3-fluoro-2′-[methyl({[(3R)-oxan-3-yl]methyl})amino]-5′-[(morpholin-2-yl)methyl]-[1,1′-biphenyl]-4-carbonitrile]	100 to 1000 nM

Other lines, results leading:

IC50	Structure (SMILES)
> 1000 nM	N#Cc1ccc(-c2cccc(CN3CCCCC34CCCNC4)c2Cl)cc1F (stereo not drawn) [Example 281, 2'-chloro-3'-({1,8-diazaspiro[5.5]undecan-1-yl}methyl)-3-fluoro-[1,1'-biphenyl]-4-carbonitrile]
100 to 1000 nM	Cc1cc(CNCC2CCCNC2)c(Cl)c(-c2ccc(C#N)c(F)c2)c1 (stereo not drawn) [Example 348, 2'-chloro-3-fluoro-5'-methyl-3'-({[(piperidin-3-yl)methyl]amino}methyl)-[1,1'-biphenyl]-4-carbonitrile]
10 to 25 nM	N#Cc1ccc(-c2cccc(CN3CCC4CC3CN4)c2C2CC2)cc1F (stereo not drawn) [Example 199, 2'-cyclopropyl-3'-({2,6-diazabicyclo[3.2.1]octan-2-yl}methyl)-3-fluoro-[1,1'-biphenyl]-4-carbonitrile]
10 to 25 nM	N#Cc1ccc(-c2ccc(F)c(CN3C[C@]4(N)CC[C@H]3C4)c2C2CC2)cc1F [Example 189, 3'-{[(1S,4S)-4-amino-2-azabicyclo[2.2.1]heptan-2-yl]methyl}-2'-cyclopropyl-3,4'-difluoro-[1,1'-biphenyl]-4-carbonitrile]
25 to 100 nM	N#Cc1ccc(-c2cccc(CN3C[C@H]4C[C@@H]3CCN4)c2C2CC2)cc1F [Example 322, 2'-cyclopropyl-3'-{[(1R,5S)-2,6-diazabicyclo[3.2.1]octan-6-yl]methyl}-3-fluoro-[1,1'-biphenyl]-4-carbonitrile]
> 1000 nM	N#Cc1ccc(-c2cc(CC3CNCCO3)ccc2C2CCCC2)cc1 (stereo not drawn) [Example 162, 2′-cyclopentyl-5′-[(morpholin-2-yl)methyl]-[1,1′-biphenyl]-4-carbonitrile]
25 to 100 nM	N#Cc1ccc(-c2cccc(Cn3cc4c(n3)CNCC4)c2-c2cncs2)cc1F [Example 236, 3-fluoro-3'-({2H,4H,5H,6H,7H-pyrazolo[3,4-c]pyridin-2-yl}methyl)-2'-(1,3-thiazol-5-yl)-[1,1'-biphenyl]-4-carbonitrile]
100 to 1000 nM	CC(C)(C)N1CCN(c2ccc(CC3CNCCO3)cc2-c2ccc(C#N)c(F)c2)CC1 (stereo not drawn) [Example 149, 2′-(4-tert-butylpiperazin-1-yl)-3-fluoro-5′-[(morpholin-2-yl)methyl]-[1,1′-biphenyl]-4-carbonitrile]
